Measured values published in patent US20140107021A1 (priority 2010, published 2014).
Where two headings read alike, the source gives them in different places.

Assays:
GIP receptor = target: T1, GIP receptor (Homo sapiens, UniProt P48546); assay: cAMP induction at the GIP receptor (agonist activity), luciferase reporter assay in HEK293 cells; type: cell-based; conditions: read-out: GIPR EC50
T1 construct: expressed in transfected cells; host or cells: HEK293
T1 sequence (P48546 22-466): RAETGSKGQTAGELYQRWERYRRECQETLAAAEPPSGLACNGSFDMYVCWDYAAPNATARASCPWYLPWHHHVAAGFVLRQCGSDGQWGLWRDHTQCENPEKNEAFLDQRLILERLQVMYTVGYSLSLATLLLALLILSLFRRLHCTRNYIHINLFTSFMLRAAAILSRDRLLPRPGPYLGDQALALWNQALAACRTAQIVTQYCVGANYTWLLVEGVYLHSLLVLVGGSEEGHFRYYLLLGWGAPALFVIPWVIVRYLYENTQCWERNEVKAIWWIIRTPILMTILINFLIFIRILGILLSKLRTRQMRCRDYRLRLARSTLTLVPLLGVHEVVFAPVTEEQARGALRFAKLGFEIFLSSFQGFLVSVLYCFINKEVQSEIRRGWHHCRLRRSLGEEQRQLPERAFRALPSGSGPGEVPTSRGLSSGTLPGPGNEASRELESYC
From the text: (§1) HEK293 cells co-transfected with the receptor and luciferase gene linked to a cAMP responsive element were employed for the bioassay.
(§2) All EC50s and IC50s are reported in the following examples in nM, unless indicated otherwise.

GLP-1 receptor = target: T2, GLP-1 receptor (Homo sapiens, UniProt P43220); assay: cAMP induction at the GLP-1 receptor (agonist activity), firefly luciferase reporter assay in HEK293 cells; type: cell-based; conditions: Table 3; read-out: GLP-1R EC50
T2 construct: expressed in transfected cells; host or cells: HEK293
T2 sequence (P43220 24-463): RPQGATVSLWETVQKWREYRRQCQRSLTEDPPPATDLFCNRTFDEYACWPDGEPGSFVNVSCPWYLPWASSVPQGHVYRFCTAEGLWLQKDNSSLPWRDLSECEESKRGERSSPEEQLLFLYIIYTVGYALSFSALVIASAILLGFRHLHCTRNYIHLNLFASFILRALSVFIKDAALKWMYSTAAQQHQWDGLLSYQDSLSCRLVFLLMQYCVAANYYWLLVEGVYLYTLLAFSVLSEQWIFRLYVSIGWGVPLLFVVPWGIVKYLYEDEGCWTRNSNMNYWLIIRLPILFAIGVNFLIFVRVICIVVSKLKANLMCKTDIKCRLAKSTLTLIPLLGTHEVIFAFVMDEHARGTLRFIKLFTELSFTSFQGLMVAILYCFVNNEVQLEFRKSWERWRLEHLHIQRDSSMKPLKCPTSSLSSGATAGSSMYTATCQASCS
From the text: as §1, §2

glucagon receptor = glucagon receptor (Homo sapiens, UniProt P47871); assay: cAMP induction at the glucagon receptor (agonist activity), luciferase reporter assay in HEK293 cells; type: cell-based; set-up: expressed in transfected cells; host or cells: HEK293; conditions: read-out: GR EC50
Chain of glucagon receptor (P47871 26-477): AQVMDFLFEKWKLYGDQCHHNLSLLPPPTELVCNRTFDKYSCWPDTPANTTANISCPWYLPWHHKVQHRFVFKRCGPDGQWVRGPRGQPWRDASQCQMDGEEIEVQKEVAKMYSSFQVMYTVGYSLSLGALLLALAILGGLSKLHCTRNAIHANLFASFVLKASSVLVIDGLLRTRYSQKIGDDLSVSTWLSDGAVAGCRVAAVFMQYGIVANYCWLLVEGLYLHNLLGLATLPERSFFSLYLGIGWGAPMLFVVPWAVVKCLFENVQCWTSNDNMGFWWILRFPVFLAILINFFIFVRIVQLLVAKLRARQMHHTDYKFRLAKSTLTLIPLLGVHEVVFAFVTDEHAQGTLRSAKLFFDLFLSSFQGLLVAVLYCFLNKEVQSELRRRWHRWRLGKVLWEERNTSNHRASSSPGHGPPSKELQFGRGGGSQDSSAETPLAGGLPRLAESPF
From the text: as §1, §2

[1] = Example 10: MT-263 under varied administration regimen in diet-induced obesity mice, 6 day study; type: in vivo, Diet-induced obesity (DIO) mice; conditions: injected on a daily basis (10 nmol/kg), compared with every 2 or 3 days
Description: Diet-induced obesity (DIO) mice (N=8, 10 mice per group) were injected during the course of the 6 day study as follows: […]

[2] = type: in vivo, C57Bl/6 mice; conditions: 30 nmol/kg subcutaneously daily for one week

Q: What does the source list for CC[C@H](C)[C@H](NC(=O)[C@H](CO)NC(=O)[C@H](Cc1ccc(O)cc1)NC(=O)[C@H](CC(=O)O)NC(=O)[C@H](CO)NC(=O)[C@@H](NC(=O)[C@H](Cc1ccccc1)NC(=O)[C@@H](NC(=O)CNC(=O)[C@H](CCC(=O)O)NC(=O)C(C)(C)NC(=O)[C@@H](N)Cc1ccc(O)cc1)[C@@H](C)O)[C@@H](C)O)C(=O)N[C@@H](Cc1ccc(O)cc1)C(=O)N[C@@H](CC(C)C)C(=O)N[C@@H](CC(=O)O)C(=O)N[C@@H](CCCCN)C(=O)N[C@@H](CCC(N)=O)C(=O)N[C@@H](C)C(=O)N[C@@H](C)C(=O)NC(C)(C)C(=O)N[C@@H](CCC(=O)O)C(=O)N[C@@H](Cc1ccccc1)C(=O)N[C@H](C(=O)N[C@@H](CC(N)=O)C(=O)N[C@@H](Cc1c[nH]c2ccccc12)C(=O)N[C@@H](CC(C)C)C(=O)N[C@@H](CC(C)C)C(=O)N[C@@H](C)C(=O)NCC(=O)NCC(=O)N1CCC[C@H]1C(=O)N[C@@H](CO)C(=O)N[C@@H](CO)C(=O)NCC(=O)N[C@@H](C)C(=O)N1CCC[C@H]1C(=O)N1CCC[C@H]1C(=O)N1CCC[C@H]1C(=O)N[C@@H](CO)C(=O)N[C@@H](CCCCN)C(N)=O)C(C)C [mt-263, Y1Aib2E3I12K16Q17A18Aib20E21N24-LAG27-29-CEX-K]?
A: EC50 (GIP receptor; Table 3): 0.0054 nM; EC50 (GIP receptor; Table 4): 0.0033 nM; EC50 (GLP-1 receptor): 0.01 nM; EC50 (glucagon receptor; Table 3): 4.04 nM; EC50 (glucagon receptor; Table 4): 3.14 nM; decrease in blood glucose levels [1]: biggest decrease in blood glucose levels; change in blood glucose levels over the course of the 7-day study [2]: greatest change in blood glucose levels; weight loss compared with the Exendin-4-like positive control peptide [2]: substantially greater than the Exendin-4-like positive control peptide; weight loss over the course of the 7-day study [2]: significant weight loss
